From patent US7183061B2, “Method of expressing Heliothis ecdysone receptor fusion protein” (Syngenta Limited, priority 1996, dated 2007)

Key:
[1] = tested on: glucocorticoid receptor transactivating and DNA binding domains fused to the ecdysone receptor hinge and ligand binding domains; conditions: mammalian cells; cited from earlier work
[2] = target: T1, chimeric ecdysone receptor and reporter gene cassette (pES1) (UniProt O18473+P04150); assay: GUS activity in stably transformed tobacco plants (pES1); type: in vivo, Heliothis virescens
T1 construct: expressed in transfected cells; host or cells: stably transformed tobacco plants (A9)
T1 sequence (P04150+O18473 with tags, fused parts or gaps): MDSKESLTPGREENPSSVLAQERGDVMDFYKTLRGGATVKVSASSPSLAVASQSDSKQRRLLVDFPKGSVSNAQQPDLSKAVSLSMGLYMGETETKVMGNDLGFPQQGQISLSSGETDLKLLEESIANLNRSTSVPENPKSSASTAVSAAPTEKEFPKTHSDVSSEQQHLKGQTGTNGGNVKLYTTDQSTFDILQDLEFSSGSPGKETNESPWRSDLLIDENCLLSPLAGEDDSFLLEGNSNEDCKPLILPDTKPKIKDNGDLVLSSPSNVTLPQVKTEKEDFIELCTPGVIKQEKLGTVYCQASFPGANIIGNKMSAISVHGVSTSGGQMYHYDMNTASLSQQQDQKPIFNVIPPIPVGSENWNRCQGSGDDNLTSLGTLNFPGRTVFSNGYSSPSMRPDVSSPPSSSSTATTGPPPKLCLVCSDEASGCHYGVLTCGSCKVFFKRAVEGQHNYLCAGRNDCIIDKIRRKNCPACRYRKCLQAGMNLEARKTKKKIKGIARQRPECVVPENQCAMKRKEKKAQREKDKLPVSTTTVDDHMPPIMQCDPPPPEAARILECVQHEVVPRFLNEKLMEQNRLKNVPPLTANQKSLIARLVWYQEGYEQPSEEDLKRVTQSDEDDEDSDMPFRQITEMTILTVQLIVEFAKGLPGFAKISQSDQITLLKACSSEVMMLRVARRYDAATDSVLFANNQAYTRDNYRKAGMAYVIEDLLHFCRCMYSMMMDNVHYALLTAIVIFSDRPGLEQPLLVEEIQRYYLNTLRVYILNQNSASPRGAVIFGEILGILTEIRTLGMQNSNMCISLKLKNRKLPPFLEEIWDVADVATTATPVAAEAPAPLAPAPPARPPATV
From the text: The methodology described below was used to produce four different stable Tobacco vectors. The method involves three steps: • 1. pbluescript SK HindIII/EcoRI vector was ligated to either GRE6-4635SCaMVGUSNOS HindIII/EcoRI (from p221.10GRE6) or GRE6-6035SCaMVGUSNOS HindIII/EcoRI (from p221.9GRE6) resulting in plasmid pSK-46 and pSK-60. • 2. This step involves the addition of the chimeric receptor (35SGRHEcRNOS or 35SGRVP16HEcRNOS) to pSK-60 or pSK-46. Thus a pSK-60 (or pSK-46) XbaI vector was ligated with either the 3.4 kb 35SGRHEcRNOS XbaI or the 3.0 kb 35SGRVP16HEcRNOS XbaI DNA fragment to produce pSKES1 (pSKGRE6-6035SCaMVGUSNOS-35SGRHEcRNOS), pSKES2 (pSKGRE6-4635 SCaMVGUSNOS-35 SGRHEcRNOS), pSKES3 (pSKGRE6-6035SCaMVGUSNOS-35SGRVP16HEcRNOS) and pSKES4 (pSKGRE6-4635SCaMVGUSNOS-35SGRVP16HEcRNOS). • 3. Transfer from pBluescript based vectors to binary vectors. The transfer of the ES1 (FIG. 29) ES2 (FIG. 30), ES3 (FIG. 31) or ES4 (FIG. 32) DNA fragments into the binary vector JR1 involves five steps: • (i) Restriction enzyme digestion of pSKES1 (ES2, ES3, and ES4) with ApaI and NotI to liberate the insert from the vector pBluescript. • (ii) The two DNA fragments were BamHI methylated for 2 hours at 37° C. in TRIS-HCl, MgCl, 80 μM SAM (S-adenosylmethionine) and 20 U of BamHI methylase. • (iii) Ligate an ApaI/NotI linker onto the fragment. The linker was designed to have an internal BamHI site: • ApaBNot1 5′ cattggatccttagc 3′ (SEQ ID NO: 46) and • ApaBNot2 5′ […] 3′ (SEQ ID NO: 47). • (iv) Restriction enzyme digest the protected and linkered fragment with BamHI and fractionate the products on a 1% (w/v) agarose gel. The protected DNA fragment (5.5 kb) was cut out of the gel and purified. • (v) A ligation of JRI BamHI vector with the protected band was carried out to produce JRIESI (JRIES2, JRIES3 or JRIES4). The DNA of the recombinant was characterised by restriction mapping and the sequence of the junctions determined. […]

[3] = target: chimeric glucocorticoid VP16/Heliothis ecdysone receptor (UniProt O18473+P04150, DEL153-392/E478D/INS403[…]/INS405[…]/M398P/P396A/P400T/P406S/R399P/S397A/Y393A); assay: GUS levels in transgenic tobacco progeny containing pES3 and pES4; type: in vivo, Heliothis virescens; set-up: expressed in transfected cells; stably transformed tobacco plants, pES3/pES4 (A11)
Chain of chimeric glucocorticoid VP16/Heliothis ecdysone receptor (P04150+O18473 fused with the stated changes): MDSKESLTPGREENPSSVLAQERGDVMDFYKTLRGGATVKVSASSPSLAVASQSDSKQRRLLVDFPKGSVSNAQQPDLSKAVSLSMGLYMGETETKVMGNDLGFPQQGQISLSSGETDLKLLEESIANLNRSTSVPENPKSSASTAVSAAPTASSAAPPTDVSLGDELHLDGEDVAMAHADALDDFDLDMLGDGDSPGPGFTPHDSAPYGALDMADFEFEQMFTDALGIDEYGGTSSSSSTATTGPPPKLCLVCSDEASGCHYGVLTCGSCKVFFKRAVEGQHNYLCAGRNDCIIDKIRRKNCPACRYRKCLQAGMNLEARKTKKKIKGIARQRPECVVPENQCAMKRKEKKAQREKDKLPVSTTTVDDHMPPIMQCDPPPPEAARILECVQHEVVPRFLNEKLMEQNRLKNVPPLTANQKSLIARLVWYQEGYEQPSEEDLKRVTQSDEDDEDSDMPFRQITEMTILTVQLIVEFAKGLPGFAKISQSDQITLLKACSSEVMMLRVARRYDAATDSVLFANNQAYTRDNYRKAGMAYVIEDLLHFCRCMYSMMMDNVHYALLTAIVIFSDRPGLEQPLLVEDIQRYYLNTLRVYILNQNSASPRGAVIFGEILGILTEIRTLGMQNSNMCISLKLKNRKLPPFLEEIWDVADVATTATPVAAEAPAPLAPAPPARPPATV
From the text: The methodology described below was used to produce four different stable Tobacco vectors. The method involves three steps: • 1. pbluescript SK HindIII/EcoRI vector was ligated to either GRE6-4635SCaMVGUSNOS HindIII/EcoRI (from p221.10GRE6) or GRE6-6035SCaMVGUSNOS HindIII/EcoRI (from p221.9GRE6) resulting in plasmid pSK-46 and pSK-60. • 2. This step involves the addition of the chimeric receptor (35SGRHEcRNOS or 35SGRVP16HEcRNOS) to pSK-60 or pSK-46. Thus a pSK-60 (or pSK-46) XbaI vector was ligated with either the 3.4 kb 35SGRHEcRNOS XbaI or the 3.0 kb 35SGRVP16HEcRNOS XbaI DNA fragment to produce pSKES1 (pSKGRE6-6035SCaMVGUSNOS-35SGRHEcRNOS), pSKES2 (pSKGRE6-4635 SCaMVGUSNOS-35 SGRHEcRNOS), pSKES3 (pSKGRE6-6035SCaMVGUSNOS-35SGRVP16HEcRNOS) and pSKES4 (pSKGRE6-4635SCaMVGUSNOS-35SGRVP16HEcRNOS). • 3. Transfer from pBluescript based vectors to binary vectors. […] The DNA of the recombinant was characterised by restriction mapping and the sequence of the junctions determined. […]

| SMILES | activity of chimeric receptor as homodimer [1] | GUS activity ([2]; 5 mM foliar application, 8 week old glasshouse grown tobacco plants) | GUS activity ([2]; seedlings grown hydroponically in the presence of inducer) | GUS activity ([2]; transgenic tobacco treated in cell culture, 100 μM in MS media) | GUS levels relative to transgenic plants containing non-VP16 vectors pES1 and pES2 [3] |
| --- | --- | --- | --- | --- | --- |
| CC(C)CC[C@@H](O)[C@](C)(O)[C@H]1CC[C@@]2(O)C3=CC(=O)[C@]4(O)C[C@@H](O)[C@@H](O)C[C@]4(C)[C@H]3[C@H](O)C[C@]12C [Muristerone A] | active | – | – | – | – |
| CCc1ccc(C(=O)NN(C(=O)c2cc(C)cc(C)c2)C(C)(C)C)cc1 [RH5992, 3,5-dimethylbenzoic acid 1-1(1,1-dimethylethyl)-2(4-ethylbenzoyl)hydrazide] | – | significantly elevated | significantly elevated | significantly elevated | elevated GUS levels |
